Values quoted from earlier work as cited in patent US20210401895A1, “TREATMENT OF A DISEASE OF THE GASTROINTESTINAL TRACT WITH LIVE BIOTHERAPEUTICS” (Progenity, Inc., priority 2017, published 2021).

Experiments:
[1] = system: malignant or hyperactive melanocytes
[2] = system: Propionibacterium acnes and Staphylococcus epidermidis; conditions: particularly Propionibacterium acnes and Staphylococcus epidermidis
[3] = system: dermatophytes, yeasts, moulds and other fungi; conditions: broad spectrum of dermatophytes

| SMILES | effect on malignant or hyperactive melanocytes [1] | effects on aerobic and anaerobic organisms [2] | activity against fungi [3] |
| --- | --- | --- | --- |
| O=C(O)CCCCCCCC(=O)O [Azelaic acid] | cytotoxic effect | antibacterial effects |  |
| Cc1cc(C2CCCCC2)n(O)c(=O)c1 [Ciclopirox] |  |  | fungicidal, fungistatic and sporicidal activity |
